Reference: patent US20210139435A1, “PROSTAGLANDIN ANALOGS AND USES THEREOF” (Lifex Biolabs, Inc., priority 2019, published 2021)

Target: T1, mouse Nurr1 full-length (Mus musculus, UniProt Q06219)
T1 construct: pcDNA3.1 Myc/His mouse Nurr1 full-length construct; expressed in transfected cells; host or cells: SK-N-BE2C
Assay: Luciferase reporter gene assay for Nurr1 transcriptional activity in SK-N-BE2C cells
Type: cell-based
Details: relative activity over control (luminescence value; 1.0)
Experimental: To investigate whether the PG analogs of the present invention activate Nurr1 function, the inventors of the present invention employed an reporter gene assay and examined the transcriptional activation as described in Kim, C.-H. et al., Proceedings of the National Academy of Sciences 112, 8756-8761, doi:10.1073/pnas.1509742112 (2015).
The gene assay was performed by Luciferase assay as described below:
[Protocol for Luciferase Assay to Determine Nurr1 Transcriptional Activity] • 1. SK-N-BE2C cells were maintained in HyClone™ DMEM High Glucose (Cat. No.: SH30022.01) with 10% (v/v) fetal bovine serum (FBS), 100 units/ml penicillin and 100 μg/ml streptomycin. • 2. Seed 1.5×10^5 SK-N-BE2C cells/well into a 24-well plate and incubate at 37° C. with 5% CO2 for 24 hours. • 3. After 24 hours, transfect cells with pcDNA3.1 Myc/His mouse Nurr1 full-length construct, firefly luciferase reporter vector (pGL-3 basic from Promega, Cat. No.:E1751; with appropriate response element cloned in) and Renilla luciferase control vector (pRL-null from Promega, Cat. No.:E2271) in the ratio of 8:1:1 (Nurr1: firefly: renilla) or 400 ng, 50 ng and 50 ng respectively, amounting to a total of 500 ng in the 50 μl transfection mix for 1 well. • 4. To make the transfection mix, first prepare the DNA with P3000 reagent by adding the appropriate amount of DNA with 1 μl P3000 reagent and top up with Opti-MEM® I Reduced-Serum Media (from ThermoFisher Scientific [Cat. No.: 31985070]) to 25 μl. Incubate for 5 minutes at room temperature. • 5. Make another mix consisting of 1 μl Lipofectamine 3000 reagent with 24 μl Opti-MEM® I Reduced-Serum Media per well. Add this Lipofectamine mix to the previous DNA-P3000 mix (after the previous 5 minute incubation) and incubate them for 15 minutes at room temperature. [P3000:Lipofectamine=1:1]. • 6. In the meantime, change the media in the sample wells with fresh DMEM media without antibiotics. • 7. After 15 minutes incubation, add the 50 μl transfection mix into each well and incubate the plate for 24 hours at 37° C. with 5% CO2. • 8. After 24 hours, change the media to normal DMEM media with antibiotics and add various doses of compounds into designated wells and incubate the plate for another 24 hours at 37° C. with 5% CO2. • 9. Following the 24-hour incubation period, luciferase assay can be conducted using Dual-Glo Luciferase® kit from Promega (Cat. No.: E2920). • 10. Lyse each tested wells for 15 minutes with 75 μl of passive lysis buffer provided in the Dual-Luciferase® kit from Promega (Cat. No.: E1910). [Alternatively, add 75 μl of PBS and 75 μl of Dual-Glo® Luciferase Reagent and incubate for 10 minutes at room temperature (cover the plate with foil to protect from light). Transfer the entire sample in each well to a Greiner CELLSTAR® 96-well white polystyrene plate then proceed to step 13]. • 11. After 15 minutes, transfer each lysed sample to a Greiner CELLSTAR® 96-well white polystyrene plate (Cat. No.:655083). • 12. To each well of lysed cells, add 75 μl of Dual-Glo® Luciferase Reagent and incubate for 10 minutes at room temperature (cover the plate with foil to protect from light). • 13. Set the measurement with a 10-second integrated measurement period. • 14. Add 75 μl of Dual-Glo® Stop & Glo® reagent into each well and incubate for 10 minutes before commencing with the same parameters as before to determine the RLU for the Renilla luciferase. • 15. The averaged reading for wells corresponding to non-transfected cells can be subtracted from each RLU reading and duplicate/triplicate readings can then be averaged. Normalization of the luminescence reading for each well can be carried out by dividing the firefly luciferase RLU with the corresponding Renilla luciferase RLU. Each drug-treated well can then be normalized against the averaged DMSO-treated well reading.

T1 sequence (Q06219 whole entry): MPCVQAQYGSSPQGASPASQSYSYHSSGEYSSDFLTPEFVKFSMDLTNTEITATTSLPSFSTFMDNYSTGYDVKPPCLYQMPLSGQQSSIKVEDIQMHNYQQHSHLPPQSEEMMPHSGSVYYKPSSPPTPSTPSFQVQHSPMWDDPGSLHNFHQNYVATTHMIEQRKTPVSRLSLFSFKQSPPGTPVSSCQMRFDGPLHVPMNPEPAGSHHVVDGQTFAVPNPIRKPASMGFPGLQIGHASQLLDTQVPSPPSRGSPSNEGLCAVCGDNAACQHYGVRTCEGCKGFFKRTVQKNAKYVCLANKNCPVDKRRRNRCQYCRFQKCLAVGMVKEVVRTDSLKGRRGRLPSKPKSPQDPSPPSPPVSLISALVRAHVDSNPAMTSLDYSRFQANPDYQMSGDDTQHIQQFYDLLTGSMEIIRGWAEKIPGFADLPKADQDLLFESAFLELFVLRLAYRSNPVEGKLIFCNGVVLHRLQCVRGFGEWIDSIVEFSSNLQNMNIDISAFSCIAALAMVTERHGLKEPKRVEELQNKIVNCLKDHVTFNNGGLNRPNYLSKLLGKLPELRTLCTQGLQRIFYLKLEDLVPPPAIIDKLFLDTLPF

| Compound | Fold activity (1 uM) |
| --- | --- |
| CCCCC[C@H](O)/C=C/[C@H]1[C@H](O)CC(=O)[C@@H]1CCCCCCC(=O)Nc1ccc(Cl)cc1 [Compound 5, N-(4-chlorophenyl)-7-((1R,2R,3R)-3-hydroxy-2-((S,E)-3-hydroxyoct-1-enyl)-5-oxocyclopentyl)heptanamide] | A (above 2.0 (high activity)) |
| CCCCC[C@H](O)/C=C/[C@H]1[C@@H](O)CC(=O)[C@@H]1C/C=C\CCCC(=O)O [Compound 21, 11b-Prostaglandin E2] | B (1.1~2.0 (moderate)) |
| CCCC[C@H](C)C[C@H](O)/C=C/[C@H]1[C@H](O)CC(=O)[C@@H]1CCCCC(CC(=O)O)OC (stereo partly drawn) [Compound 63, 3-methoxy Limaprost] | B (1.1~2.0 (moderate)) |
| CCCCCC(=O)CCC1C(=O)CC(O)C1CCCCCCC(=O)O (stereo not drawn) [Compound 79, 13,14-dihydro-15-keto Prostaglandin D1] | C (below 1.0 (low activity)) |
| CCCCC[C@H](O)/C=C/[C@H]1[C@H](O)CC(=O)[C@@H]1CCCCCCC(=O)Nc1ccc2cccnc2c1 [Compound 8, 7-((1R,2R,3R)-3-hydroxy-2-((S,E)-3-hydroxyoct-1-enyl)-5-oxocyclopentyl)-N-(quinolin-7-yl)heptanamide] | A (above 2.0 (high activity)) |
| CCCCC[C@H](O)/C=C/[C@H]1C(=O)C[C@H](O)[C@@H]1CCCCCCC(=O)O [Compound 48, Prostaglandin D1] | C (below 1.0 (low activity)) |
| C=C1C[C@H](O)[C@H](C/C=C\CCCC(=O)O)[C@H]1/C=C/[C@@H](O)CCCCC [Compound 25, 11-deoxy-11-methylene Prostaglandin D2] | B (1.1~2.0 (moderate)) |
| CCCCC[C@H](O)/C=C/[C@H]1[C@H](O)CC(=O)[C@H]1C/C=C\CCCC(=O)O [Compound 68, 8-iso Prostaglandin E2] | A (above 2.0 (high activity)) |
| CCCCC[C@H](O)/C=C/[C@H]1[C@H](O)CC(=O)[C@@H]1CCCCCCC(=O)O [Compound 73, Prostaglandin E1] | A (above 2.0 (high activity)) |
| CCCCC[C@@H](O)/C=C/[C@H]1[C@H](O)CC(=O)[C@@H]1CCCCCCC(=O)O [Compound 87, 15(R)-PGE1] | C (below 1.0 (low activity)) |
| CCCCCC(O)/C=C/[C@H]1[C@H](O)CC(=O)[C@@H]1CCCCCCC(=O)Oc1ccc(NC(=O)c2ccc(F)cc2)cc1 (stereo partly drawn) [Compound 11, 4-(4-fluorobenzamido)phenyl 7-((1R,2R,3R)-3-hydroxy-2-((E)-3-hydroxyoct-1-enyl)-5-oxocyclopentyl)heptanoate] | A (above 2.0 (high activity)) |
| O=C(O)CCC/C=C\C[C@H]1C(=O)C[C@@H](O)[C@@H]1/C=C/[C@@H](O)Cc1ccccc1 [Compound 30, 16-phenyl tetranor Prostaglandin E2] | A (above 2.0 (high activity)) |
| CCCCC[C@@](C)(O)/C=C/[C@H]1[C@H](O)CC(=O)[C@@H]1C/C=C\CCCC(=O)O [Compound 53, 15(R)-15-methyl Prostaglandin E2] | B (1.1~2.0 (moderate)) |
| CCCCC[C@H](O)/C=C/[C@H]1[C@H](O)CC(=O)[C@@H]1C/C=C\CCCC(=O)NCCO [Compound 36, Prostaglandin E2 Ethanolamide] | B (1.1~2.0 (moderate)) |
| O=C(O)CCCCCCC1C(=O)NC(=O)N1CCC(O)C1CCCCC1 (stereo not drawn) [Compound 90, BW245C] | A (above 2.0 (high activity)) |
| O=C(O)CCC/C=C\C[C@H]1C(=O)C[C@@H](O)[C@@H]1/C=C/[C@@H](O)CCc1ccccc1 [Compound 38, 17-phenyl trinor Prostaglandin E2] | B (1.1~2.0 (moderate)) |
| CCCCC[C@](C)(O)/C=C/[C@H]1[C@H](O)CC(=O)[C@@H]1C/C=C\CCCC(=O)O [Compound 61, 15(S)-15-methyl Prostaglandin E2] | A (above 2.0 (high activity)) |

| Compound | Fold activity (1 uM) |
| --- | --- |
| CCCCC[C@@H](O)CC[C@H]1[C@H](O)CC(=O)[C@@H]1CCCCCCC(=O)O [Compound 66, 13,14-dihydro-15(R)-Prostaglandin E1] | B (1.1~2.0 (moderate)) |
| CCCCC[C@H](O)CC[C@H]1[C@H](O)CC(=O)[C@@H]1CCCCCCC(=O)O [Compound 58, 13,14-dihydro Prostaglandin E1] | A (above 2.0 (high activity)) |
| CCCCC[C@](C)(O)/C=C/[C@H]1[C@H](O)CC(=O)[C@@H]1CCCCCCC(=O)O [Compound 27, 15(S)-15-methyl Prostaglandin E1] | A (above 2.0 (high activity)) |
| CCCCC(C)(O)C/C=C/[C@H]1[C@H](O)CC(=O)[C@@H]1CCCCCCC(=O)NOc1ccccc1 (stereo partly drawn) [Compound 10, 7-((1R,2R,3R)-3-hydroxy-2-((E)-4-hydroxy-4-methyloct-1-enyl)-5-oxocyclopentyl)-N-phenoxyheptanamide] | A (above 2.0 (high activity)) |
| CCCCCC(=O)/C=C/[C@H]1[C@H](O)CC(=O)[C@@H]1CCCCCCC(=O)O [Compound 19, 15-keto Prostaglandin E1] | B (1.1~2.0 (moderate)) |
| CCCCC[C@H](O)/C=C/[C@H]1C(=O)C[C@H](O)[C@@H]1C/C=C\CCCC(=O)O [Compound 64, Prostaglandin D2] | B (1.1~2.0 (moderate)) |
| CCCCCC(=O)CCC1C(O)CC(=O)C1CCCCCCC(=O)O (stereo not drawn) [Compound 74, 13,14-dihydro-15-keto Prostaglandin E1] | B (1.1~2.0 (moderate)) |
| O=C(CCC/C=C\C[C@@H]1[C@@H](CC[C@@H](O)CCc2ccccc2)[C@H](O)C[C@@H]1O)OCCCCO[N+](=O)[O-] [Compound 95, Latanoprostene bunod] | C (below 1.0 (low activity)) |
| CCCCCCC[C@H](O)/C=C/[C@H]1[C@H](O)CC(=O)[C@@H]1C/C=C\CCCC(=O)O [Compound 62, 20-ethyl Prostaglandin E2] | A (above 2.0 (high activity)) |
| CC/C=C/C[C@H](O)/C=C/[C@H]1[C@H](O)CC(=O)[C@@H]1C/C=C\CCCC(=O)O (relative stereo) [Compound 78, 17-trans Prostaglandin E3] | A (above 2.0 (high activity)) |
| CCCCCC(=O)/C=C/[C@H]1[C@H](O)CC(=O)[C@@H]1C/C=C\CCCC(=O)O [Compound 45, 15-keto Prostaglandin E2] | B (1.1~2.0 (moderate)) |
| CCCCCC(=O)CC[C@H]1C(=O)C[C@H](O)[C@@H]1C/C=C\CCCC(=O)O [Compound 33, 13,14-dihydro-15-keto Prostaglandin D2] | B (1.1~2.0 (moderate)) |
| CCCCC[C@H](O)/C=C/[C@H]1[C@H](O)CC(=O)[C@@H]1CCCCCCCO [Compound 89, 1,11a,15S-Trihydroxy-prost-13E-EN-9-ONE] | A (above 2.0 (high activity)) |
| CCCCC[C@@H](O)/C=C/[C@H]1C(=O)C[C@H](O)[C@@H]1CCCCCCCO [Compound 56, Prostaglandin D1 Alcohol] | C (below 1.0 (low activity)) |
| C[C@@H](O)CCC[C@H](O)/C=C/[C@H]1[C@H](O)CC(=O)[C@@H]1CCCCCCC(=O)O [Compound 83, 19(R)-hydroxy Prostaglandin E1] | B (1.1~2.0 (moderate)) |
| CCCCC(C)(O)C/C=C/[C@H]1[C@H](O)CC(=O)[C@@H]1CCCCCCC(=O)O (mixture of isomers) [Compound 94, Misoprostol acid] | B (1.1~2.0 (moderate)) |
